# ChEMBL document CHEMBL1201862, “PubChem BioAssay data set” (2004)
#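 Cells were grown in 96-well plates and exposed to each compound for 48 hours at five concentrations; endpoints were interpolated linearly between bracketing concentrations, or set to the highest concentration if not reached. Here, GI50 denotes the concentration required for 50% inhibition of growth.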 The source made the active and inactive calls. Cut-off read from the data, not from the text of the source: active = GI50 up to about 1.1 µM and inactive = higher.
# Key:
# Test in all cases: growth of human tumour cells (NCI), 48 h
# [1] = system: 786-0
# [2] = system: A498
# [3] = system: A549
# [4] = system: CCRF-CEM
# [5] = system: HCC 2998
# [6] = system: HL-60
# [7] = system: IGROV-1
# [8] = system: M14
# [9] = system: MDA-N
# [10] = system: MOLT-4
# [11] = system: NCI/ADR-RES
# [12] = system: OVCAR-4
# [13] = system: PC-3
# [14] = system: SF-295
# [15] = system: SK-MEL-28
# [16] = system: SK-MEL-5
# [17] = system: SNB-19
# [18] = system: SR
# [19] = system: UACC-257
# [20] = system: TK-10
Compound,GI50 [1],GI50 [2],GI50 [3],GI50 [4],GI50 [5],GI50 [6],GI50 [7],GI50 [8],GI50 [9],GI50 [10],GI50 [11],GI50 [12],GI50 [13],GI50 [14],GI50 [15],GI50 [16],GI50 [17],GI50 [18],GI50 [19],GI50 [20]
CCC(=O)Nc1ccc(N2C(=O)/C(=C/c3ccc(O)c(OC)c3)N=C2c2ccccc2)cc1,24 µM (inactive),15.8 µM (inactive),21.3 µM (inactive),22.1 µM (inactive),21 µM (inactive),24 µM (inactive),31.1 µM (inactive),19.7 µM (inactive),31.3 µM (inactive),11.3 µM (inactive),70.6 µM (inactive),9.91 µM (inactive),16.5 µM (inactive),19.9 µM (inactive),25.6 µM (inactive),14.3 µM (inactive),22.5 µM (inactive),13.2 µM (inactive),26.7 µM (inactive),
CCOC(=O)c1cc2c3c(c(C(C)=O)c(O)c2[nH]1)N(CC(C)CC)CC3 (centres undefined),49.2 µM (inactive),80.9 µM (inactive),62.8 µM (inactive),35.6 µM (inactive),,28.8 µM (inactive),> 100 µM (inactive),,35.7 µM (inactive),26.3 µM (inactive),29.6 µM (inactive),43.1 µM (inactive),66.8 µM (inactive),45 µM (inactive),> 100 µM (inactive),,92 µM (inactive),27.4 µM (inactive),68.7 µM (inactive),> 100 µM (inactive)
C=C1C(=O)C2=C[C@H]1C[C@H](O)C(=O)[C@]1(C)CCCC(C)(C)[C@H]1C[C@H]2O,0.959 µM (active),1.86 µM (inactive),0.665 µM (active),0.0488 µM (active),,0.237 µM (active),3.6 µM (inactive),1.52 µM (inactive),1.93 µM (inactive),0.979 µM (active),1.67 µM (inactive),3.94 µM (inactive),1.92 µM (inactive),7.94 µM (inactive),1.73 µM (inactive),,16.1 µM (inactive),0.358 µM (active),1.86 µM (inactive),0.787 µM (active)
COc1cccc2c1C(=O)c1c(O)c3c(c(O)c1C2=O)C[C@@](O)(C(C)=O)C[C@@H]3OC1CC(N(Cc2ccccc2)Cc2ccccc2)C(O)C(C)O1 (some centres undefined),0.713 µM (active),28.5 µM (inactive),4.55 µM (inactive),2.43 µM (inactive),29.4 µM (inactive),9.55 µM (inactive),9.55 µM (inactive),2.27 µM (inactive),11.4 µM (inactive),,10.3 µM (inactive),15.1 µM (inactive),6.61 µM (inactive),13.6 µM (inactive),32.8 µM (inactive),14.6 µM (inactive),21.7 µM (inactive),0.101 µM (active),26.4 µM (inactive),13.7 µM (inactive)
CN1CCN2CCN(C)CCN(CC1)CC2,> 100 µM (inactive),> 100 µM (inactive),> 100 µM (inactive),> 100 µM (inactive),,> 100 µM (inactive),> 100 µM (inactive),> 100 µM (inactive),> 100 µM (inactive),> 100 µM (inactive),> 100 µM (inactive),> 100 µM (inactive),> 100 µM (inactive),> 100 µM (inactive),> 100 µM (inactive),> 100 µM (inactive),> 100 µM (inactive),> 100 µM (inactive),> 100 µM (inactive),> 100 µM (inactive)
CO[P@@]1(=O)O[C@@H](c2ccccc2)[C@H](O)[C@]1(O)c1ccccc1,> 100 µM (inactive),> 100 µM (inactive),> 100 µM (inactive),> 100 µM (inactive),,> 100 µM (inactive),> 100 µM (inactive),> 100 µM (inactive),> 100 µM (inactive),> 100 µM (inactive),> 100 µM (inactive),> 100 µM (inactive),> 100 µM (inactive),> 100 µM (inactive),> 100 µM (inactive),> 100 µM (inactive),> 100 µM (inactive),> 100 µM (inactive),> 100 µM (inactive),> 100 µM (inactive)
O=C1OCC(O)=C1C(c1ccc(Cl)cc1)c1cc2c(cc1O)OCO2 (centres undefined),> 100 µM (inactive),> 100 µM (inactive),> 100 µM (inactive),> 100 µM (inactive),> 100 µM (inactive),> 100 µM (inactive),> 100 µM (inactive),> 100 µM (inactive),> 100 µM (inactive),> 100 µM (inactive),> 100 µM (inactive),> 100 µM (inactive),> 100 µM (inactive),,> 100 µM (inactive),> 100 µM (inactive),> 100 µM (inactive),> 100 µM (inactive),,> 100 µM (inactive)
